Measurements: US12606572B2, “Substituted heterocycles and uses thereof” (Kumquat Biosciences Inc., priority 2023, dated 2026)

How the values were obtained:
[1] = target: T1, KRAS G12S (Homo sapiens, UniProt P01116, G12S); assay: HTRF assay, interaction of GST-tagged K-Ras with His-tagged hSOS1 (KRAS G12S); format: biochemical; settings: <500 nM, read-out: Inhibition of KRAS G12S (IC50)
T1 construct: made in house; host or cells: E. coli BL21 (DE3)
Excerpt: (§1) This assay can be also used to assess a selective inhibition or reduction of signaling output of a mutant Ras protein relative to a wildtype, or relative to a different mutant Ras protein. For example, the equilibrium interaction of wildtype KRAS or K-Ras mutant (e.g., wildtype or a mutant thereof) with SOS1 (e.g., hSOS1) can be assessed as a proxy or an indication for the ability of a subject compound to bind and inhibit Ras protein. The HTRF assay detects from (i) a fluorescence resonance energy transfer (FRET) donor (e.g., antiGST-Europium) that is bound to GST-tagged K-Ras mutant to (ii) a FRET acceptor (e.g., anti-6His-XL665) bound to a His-tagged hSOS1.
(§2) The assay buffer can contain ˜5 mM HEPES pH 7.4, ˜150 mM NaCl, ˜1 mM DTT, 0.05% BSA and 0.0025% (v/v) Igepal. A Ras working solution is prepared in an assay buffer containing typically a suitable amount of the protein construct (e.g., GST-tagged K-Ras mutant) and the FRET donor (e.g., antiGST-Eu(K) from Cisbio, France). A SOS1 working solution is prepared in an assay buffer containing suitable amount of the protein construct (e.g., His-hSOS1) and the FRET acceptor (e.g., anti-6His-XL665 from Cisbio, France). A suitable amount of the protein construct will depend on the range of activity or range of IC50 values being detected or under investigation. For detecting an IC50 within a range of 500 nM, the protein constructs of the same range of molarity can be utilized.
(§3) A fixed volume of DMSO with or without test compound is transferred into a 384-well plate. Ras working solution is added to all wells of the test plate. SOS1 working solution is added to all wells except for those that are subsequently filled with inhibitor control solution. Upon incubation for about 10 minutes or longer, the fluorescence is measured with a M1000Pro plate reader (Tecan) using HTRF detection (excitation 337 nm, emission 1: 620 nm, emission 2: 665 nm). Compounds are tested in duplicate at different concentrations (for example, 10 μM, 2.5 μM, 0.63 μM, 0.16 μM, 0.04 μM, 0.01 μM test compound). The ratiometric data (i.e., emission 2 divided by emission 1) is used to calculate IC50 values against Ras using GraphPad Prism (GraphPad software). Signaling output measured in terms of IC50 values can be obtained and a ratio of IC50 against one mutant relative to another mutant can be calculated. For instance, a selective reduction of K-Ras G12S signaling output can be evidenced by a ratio greater than one. In particular, a selective reduction of K-Ras G12S signaling relative to K-Ras WT signaling is evidenced if the ratio of IC50 (against K-Ras WT) to IC50 (against K-Ras G12S) is greater than 1.

[2] = target: T2, KRAS WT (Homo sapiens, UniProt P01116); assay: HTRF assay, interaction of GST-tagged K-Ras with His-tagged hSOS1 (KRAS wildtype); format: biochemical; settings: <500 nM, read-out: Inhibition of KRAS WT (IC50)
T2 construct: made in house; host or cells: E. coli BL21 (DE3)
T2 sequence (P01116 1-188 isoform P01116-2): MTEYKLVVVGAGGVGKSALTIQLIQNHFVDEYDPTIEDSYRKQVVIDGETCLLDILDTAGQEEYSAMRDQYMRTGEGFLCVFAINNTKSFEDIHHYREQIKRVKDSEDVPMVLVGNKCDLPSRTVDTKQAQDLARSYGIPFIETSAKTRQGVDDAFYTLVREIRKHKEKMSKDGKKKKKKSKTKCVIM
Excerpt: as §1, §2, §3

T1 sequence (P01116 1-188 isoform P01116-2 G12S): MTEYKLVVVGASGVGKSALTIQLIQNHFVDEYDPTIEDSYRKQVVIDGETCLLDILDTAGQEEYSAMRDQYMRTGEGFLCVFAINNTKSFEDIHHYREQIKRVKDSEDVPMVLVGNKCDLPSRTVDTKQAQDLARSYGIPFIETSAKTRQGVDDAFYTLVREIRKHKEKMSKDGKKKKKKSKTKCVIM

Row | Structure (SMILES) | IC50 [1] | IC50 [2]
1 | C[C@@H]1[C@H](N2CCCOc3c(Cl)c(-c4ccc(F)c5sc(N)c(C#N)c45)c(F)c4nc(OC[C@@]56CCCN5C[C@H](F)C6)nc2c34)CCN1C(=O)n1ccnc1 [Compound 481, 4-(4-((2R,3R)-1-(1H-imidazole-1-carbonyl)-2-methylpyrrolidin-3-yl)-9-chloro-11-fluoro-2-(((2R,7aS)-2-fluorotetrahydro-1H-pyrrolizin-7a(5H)-yl)methoxy)-4,5,6,7-tetrahydro-[1,5]oxazocino[4,3,2-de]quinazolin-10-yl)-2-amino-7-fluorobenzo[b]thiophene-3-carbonitrile] | < 500 nM | < 500 nM
2 | C[C@@H]1[C@H](N2c3nc(OC[C@@]45CCCN4C[C@H](F)C5)nc4c(F)c(-c5ccc(F)c6sc(N)c(C#N)c56)c(Cl)c(c34)OC[C@@H]2C)CCN1C(=O)n1ccnc1 (single isomer, unassigned) [Compound 432] | < 500 nM | < 500 nM
3 | C[C@@H]1[C@H](N2CCCc3nc(-c4ccc(F)c5sc(N)c(C#N)c45)c(F)c4nc(OC[C@@]56CCCN5C[C@H](F)C6)nc2c34)CCN1C(=O)n1cnc(Cl)n1 [Compound 433, 2-amino-4-(10-((2R,3R)-1-(3-chloro-1H-1,2,4-triazole-1-carbonyl)-2-methylpyrrolidin-3-yl)-4-fluoro-2-(((2R,7aS)-2-fluorotetrahydro-1H-pyrrolizin-7a(5H)-yl)methoxy)-7,8,9,10-tetrahydro-1,3,6,10-tetraazacyclohepta[de]naphthalen-5-yl)-7-fluorobenzo[b]thiophene-3-carbonitrile] | < 500 nM | < 500 nM
4 | CC([C@H]1CCN1C(=O)n1cncn1)N1CCOc2c(Cl)c(-c3ccc(F)c4sc(N)c(C#N)c34)c(F)c3nc(OC[C@@]45CCCN4C[C@H](F)C5)nc1c23 (stereo partly drawn) [Compound 445, 4-(4-(1-((R)-1-(1H-1,2,4-triazole-1-carbonyl)azetidin-2-yl)ethyl)-8-chloro-10-fluoro-2-(((2R,7aS)-2-fluorotetrahydro-1H-pyrrolizin-7a (5H)-yl)methoxy)-5,6-dihydro-4H-[1,4]oxazepino[5,6,7-de]quinazolin-9-yl)-2-amino-7-fluorobenzo[b]thiophene-3-carbonitrile] | < 500 nM | < 500 nM
5 | CC1([C@@H]2[C@H](CN3CCOc4c(Cl)c(-c5ccc(F)c6sc(N)c(C#N)c56)c(F)c5nc(OC[C@@]67CCCN6C[C@H](F)C7)nc3c45)CN2C(=O)n2cnc(F)n2)CC1 (single isomer, unassigned) [Compound 420] | < 500 nM | < 500 nM
6 | C/C(C#N)=C/C(=O)N1CC(CN2CCOc3c(Cl)c(-c4ccc(F)c5sc(N)c(C#N)c45)c(F)c4nc(OC[C@@]56CCCN5C[C@H](F)C6)nc2c34)C1 [Compound 459, 2-amino-4-(8-chloro-4-((1-((Z)-3-cyanobut-2-enoyl)azetidin-3-yl)methyl)-10-fluoro-2-(((2R, 7aS)-2-fluorotetrahydro-1H-pyrrolizin-7a(5H)-yl)methoxy)-5,6-dihydro-4H-[1,4]oxazepino[5,6,7-de]quinazolin-9-yl)-7-fluorobenzo [b]thiophene-3-carbonitrile] | < 500 nM | < 500 nM
7 | CC(C)(C)[C@@H]1[C@H](CN2CCOc3c(Cl)c(-c4ccc(F)c5sc(N)c(C#N)c45)c(F)c4nc(OC[C@@]56CCCN5C[C@H](F)C6)nc2c34)CN1C(=O)n1cnc(F)n1 (single isomer, unassigned) [Compound 434] | < 500 nM | < 500 nM
8 | C[C@H](O)[C@H]1COc2c(Cl)c(-c3ccc(F)c4sc(N)c(C#N)c34)c(F)c3nc(OC[C@@]45CCCN4C[C@H](F)C5)nc(c23)N1CC1CCN(C(=O)n2ccnc2)C1 (stereo partly drawn) [Compound 419, 4-((5R)-4-((1-(1H-imidazole-1-carbonyl)pyrrolidin-3-yl)methyl)-8-chloro-10-fluoro-2-(((2R,7aS)-2-fluorotetrahydro-1H-pyrrolizin-7a(5H)-yl)methoxy)-5-((S)-1-hydroxyethyl)-5,6-dihydro-4H-[1,4]oxazepino [5,6,7-de]quinazolin-9-yl)-2-amino-7-fluorobenzo[b] thiophene-3-carbonitrile] | < 500 nM | < 500 nM
9 | CC(C)[C@@H]1[C@H](CN2CCOc3c(Cl)c(-c4ccc(F)c5sc(N)c(C#N)c45)c(F)c4nc(OC[C@@]56CCCN5C[C@H](F)C6)nc2c34)CN1C(=O)n1cnc(Cl)n1 [Compound 493, 2-amino-4-(8-chloro-4-(((2R,3R)-1-(3-chloro-1H-1,2,4-triazole-1-carbonyl)-2-isopropylazetidin-3-yl)methyl)-10-fluoro-2-(((2R,7aS)-2-fluorotetrahydro-1H-pyrrolizin-7a (5H)-yl)methoxy)-5,6-dihydro-4H-[1,4]oxazepino[5,6,7-de]quinazolin-9-yl)-7-fluorobenzo[b]thiophene-3-carbonitrile] | < 500 nM | < 500 nM
10 | C[C@@H]1[C@H](N2CCCOc3c(Cl)c(-c4ccc(F)c5sc(N)c(C#N)c45)c(F)c4nc(OC[C@@]56CCCN5C[C@H](F)C6)nc2c34)CCN1C(=O)n1cnc(F)n1 [Compound 448, 2-amino-4-(9-chloro-11-fluoro-4-((2R,3R)-1-(3-fluoro-1H-1,2,4-triazole-1-carbonyl)-2-methylpyrrolidin-3-yl)-2-(((2R,7aS)-2-fluorotetrahydro-1H-pyrrolizin-7a(5H)-yl)methoxy)-4,5,6,7-tetrahydro-[1,5]oxazocino [4,3,2-de]quinazolin-10-yl)-7-fluorobenzo[b]thiophene-3-carbonitrile] | < 500 nM | < 500 nM
11 | C[C@H](O)[C@H]1COc2c(Cl)c(-c3ccc(F)c4sc(N)c(C#N)c34)c(F)c3nc(OC[C@@]45CCCN4C[C@H](F)C5)nc(c23)N1C1CC(N(C)C(=O)n2ccnc2)C1 (stereo partly drawn) [Compound 428, N-(3-((5R)-9-(2-amino-3-cyano-7-fluorobenzo[b]thiophen-4-yl)-8-chloro-10-fluoro-2-(((2R,7aS)-2-fluorotetrahydro-1H-pyrrolizin-7a(5H)-yl)methoxy)-5-((S)-1-hydroxyethyl)-5,6-dihydro-4H-[1,4]oxazepino [5,6,7-de]quinazolin-4-yl)cyclobutyl)-N-methyl-1H-imidazole-1-carboxamide] | < 500 nM | < 500 nM
12 | CN(C)C/C=C/C(=O)N1CC(CN2CCOc3c(Cl)c(-c4ccc(F)c5sc(N)c(C#N)c45)c(F)c4nc(OC[C@@]56CCCN5C[C@H](F)C6)nc2c34)C1 [Compound 469, 2-amino-4-(8-chloro-4-((1-((E)-4-(dimethylamino)but-2-enoyl)azetidin-3-yl)methyl)-10-fluoro-2-(((2R, 7aS)-2-fluorotetrahydro-1H-pyrrolizin-7a(5H)-yl)methoxy)-5,6-dihydro-4H-[1,4]oxazepino[5,6,7-de]quinazolin-9-yl)-7-fluorobenzo [b]thiophene-3-carbonitrile] | < 500 nM | < 500 nM
13 | C[C@H](O)[C@H]1COc2c(Cl)c(-c3ccc(F)c4sc(N)c(C#N)c34)c(F)c3nc(OC[C@@]45CCCN4C[C@H](F)C5)nc(c23)N1CC1CCCN1C(=O)n1ccnc1 (stereo partly drawn) [Compound 495, 4-((5R)-4-((1-(1H-imidazole-1-carbonyl)pyrrolidin-2-yl)methyl)-8-chloro-10-fluoro-2-(((2R,7aS)-2-fluorotetrahydro-1H-pyrrolizin-7a(5H)-yl)methoxy)-5-((S)-1-hydroxyethyl)-5,6-dihydro-4H-[1,4]oxazepino [5,6,7-de]quinazolin-9-yl)-2-amino-7-fluorobenzo[b] thiophene-3-carbonitrile] | < 500 nM | < 500 nM
